# What was measured:
# GLP-1 = settings: Shima et al., Acta Endocrinologica 1990; cited from earlier work
# active GLP-1 in plasma [1] = assay: GLP-1 secretion-stimulating action by combined use of DPP4 inhibitor and sweetener (3), Example 5; assay type: in vivo, mouse; settings: C57BL/6J mice, mean ± SEM, n = 5
# Protocol: Purified water was administered orally (10 mL/kg) as a control.
# D-mannitol (Wako Pure Chemical Industries, Ltd.) at 3 g/kg, melibiose (Wako Pure Chemical Industries, Ltd.) at 6 g/kg or acesulfame K (Wako Pure Chemical Industries, Ltd.) at 3 g/kg was used as sweetener and administered orally (10 mL/kg). Purified water was administered orally (10 mL/kg) as a control.
# [2] = Body weight-reducing test using DIO mice (2), Example 6; assay type: in vivo, mouse; settings: for Body weight gain after 12 days / Body weight gain after 13 days: high fat diet-fed C57BL/6J mice, mean ± SEM, n = 9; for fat mass (g) as compared with the control group / lean mass (g) in comparison with the control group / body weights as compared with the control group: sweetener 5 w/w % combined with Compound A′ 10 mg/100 g in-feed; for fat mass (g) as compared with the control group / lean mass (g) in comparison with the control group: body composition 15 days after dosing; for body weights as compared with the control group: each of days 2 to 13 (or day 12) after dosing
# Protocol: Testing was carried out in the same manner as (1) of Example 3 above. High fat diet-fed, male C57BL/6J mice housed until age 14 to 22 weeks were used in the test.
# The study animals were used in the test after first grouping according to body weight and blood sugar level.
# The animals were administered test DPP4 inhibitor and test sweetener in-feed for up to 15 days.
# Body weights and food intake were measured over time after the start of administration of the test substances. Testing and analysis of measurement results were carried out in the same manner as (1) of Example 3 above.
# In addition, in the case body weight reducing effect was observed, body composition was measured in the same manner as (1) of Example 3 above.
# D-mannitol (Wako Pure Chemical Industries, Ltd.), melibiose (Wako Pure Chemical Industries, Ltd.) or acesulfame K (Wako Pure Chemical Industries, Ltd.) was used as sweetener and each was administered in-feed at 5 w/w %. In addition, Compound A′ was administered as DPP4 inhibitor in-feed at 10 mg/100 g.
# Body weight reducing-effect was tested for the cases of combined use of each of these sweeteners and DPP4 inhibitor in accordance with the method described in (1) above (n=9 animals per group).
# active GLP-1 in plasma [3] = assay: GLP-1 secretion-stimulating action by combined use of DPP4 inhibitor and sweetener (2), Example 4; assay type: in vivo, mouse; settings: 1 hour after dosing, relative to 100 for Compound A′ and fructooligosaccharide 6 g/kg, C57BL/6J mice
# Protocol: Male C57BL/6J mice (Clea Japan, Inc.) (7-week-old at time of use) were used in the test.
# These study animals were used in the test after first fasting starting on the night prior to the test and then grouping according to body weight. The animals were orally administered test DPP4 inhibitor (or purified water as a control) (10 mL/kg). At 30 minutes after administration, the animals were then orally administered (10 mL/kg) a solution of test sweetener (or purified water as a control) followed by collecting blood samples at 0, 30, 60, 180 and 300 minutes after administration. These samples were then measured for concentrations of active GLP-1 in plasma.
# Measurement of plasma active GLP-1 concentrations and analysis and testing of the measurement results were carried out in the same manner as (1) of Example 1 above.
# Fructooligosaccharide (Meiji Seika Kaisha Ltd.), kestose (Meiji Seika Kaisha Ltd., GF2), raffinose (Wako Pure Chemical Industries, Ltd.), melibiose (Wako Pure Chemical Industries, Ltd.), xylooligosaccharide (Suntory Ltd.), xylose (Wako Pure Chemical Industries, Ltd.), xylitol (Wako Pure Chemical Industries, Ltd.), sorbitol (Wako Pure Chemical Industries, Ltd.), D-mannitol (Wako Pure Chemical Industries, Ltd.), erythritol (Wako Pure Chemical Industries, Ltd.), maltitol (Hayashibara Biochemical Laboratories, Inc.), sucralose (San-Ei Gen F.F.I., Inc.) or acesulfame K (Wako Pure Chemical Industries, Ltd.) was used as sweetener and administered orally (10 mL/kg) at 6 g/kg, 3 g/kg or 1 g/kg.
# In addition, (2S)-2-cyano-1-[trans-4-(dimethylaminocarbonyl)cyclohexylamino]acetylpyrrolidine benzenesulfonate (hereafter referred to as Compound A′) as DPP4 inhibitor (or purified water as a control) was used at 10 mg/kg and administered orally (10 mL/kg).
# Blood active GLP-1 level-increasing action was tested for the cases of combined use of DPP4 inhibitor and each type of sweetener in accordance with the method described in (1) above (n=4 to 5 animals per group).
# Blood active GLP-1 concentrations (1 hour after dosing) in the groups dosed with both each type of sweetener (6 g/kg, 3 g/kg or 1 g/kg) and Compound A′ (10 mg/kg) were represented as relative values with respect to blood active GLP-1 concentrations (1 hour after dosing) in the group dosed with fructooligosaccharide (6 g/kg) and Compound A′.
# [4] = Body weight-reducing test using DIO mice (3), Example 7; assay type: in vivo, mouse; settings: for Body weight gain After 8 days / Body weight gain After 15 days: sweetener in feed at 5 w/w % combined with Compound A′ in feed at 10 mg/100 g, high fat diet-fed C57BL/6J mice, mean ± SEM, n = 7
# Protocol: Testing was carried out in the same manner as (1) of Example 3 above. High fat diet-fed, male C57BL/6J mice housed until age 16 weeks were used in the test.
# The study animals were used in the test after first grouping according to body weight.
# The animals were administered test DPP4 inhibitor and test sweetener in-feed for up to 15 days. Body weights and food intake were measured over time after the start of administration of the test substances.
# Sorbitol (Wako Pure Chemical Industries, Ltd.) or erythritol (Wako Pure Chemical Industries, Ltd.) was used as sweetener and each was administered in-feed at 5 w/w %. In addition, Compound A′ was administered as DPP4 inhibitor in-feed at 10 mg/100 g. Body weight reducing effect was tested for the cases of combined use of each of these sweeteners and DPP4 inhibitor in accordance with the method described in (1) above (n=7 animals per group).
# [5] = DPP4 inhibitor 10 mg/kg orally combined with acesulfame K 3 g/kg orally
# [6] = Compound A′ alone in feed at 10 mg/100 g
# [7] = sweetener 3 g/kg orally combined with Compound A′ 10 mg/kg orally
# [8] = sweetener 3 g/kg orally alone (purified water instead of DPP4 inhibitor)
# [9] = sweetener alone 5 w/w % in-feed
# [10] = sweetener alone in feed at 5 w/w %
# [11] = sweetener in feed at 5 w/w % combined with Compound A′ in feed at 10 mg/100 g
# [12] = sweetener 6 g/kg orally combined with Compound A′ 10 mg/kg orally
# [13] = sweetener 5 w/w % combined with Compound A′ 10 mg/100 g in-feed
# [14] = sweetener alone, separate tests
smiles,measurement,setting,value
OC[C@H]1O[C@H](O[C@H]2[C@H](O)[C@@H](O)C(O)O[C@@H]2CO)[C@H](O)[C@@H](O)[C@@H]1O (mixture of isomers) [maltose],blood GLP-1 levels following administration,GLP-1,blood GLP-1 levels are increased
"CN(C)C(=O)[C@H]1CC[C@H](NCC(=O)N2CCC[C@H]2C#N)CC1.O=S(=O)(O)c1ccccc1 (relative stereo) [Compound A′, (2S)-2-cyano-1-[trans-4-(dimethylaminocarbonyl)cyclohexylamino]acetylpyrrolidine benzenesulfonate]",Increase in AUC of Plasma active GLP-1,active GLP-1 in plasma [1]; DPP4 inhibitor 10 mg/kg orally combined with D-mannitol 3 g/kg orally,170 ± 27 pM·h
same,Increase in AUC of Plasma active GLP-1,active GLP-1 in plasma [1]; [5],142 ± 11 pM·h
same,Increase in AUC of Plasma active GLP-1,active GLP-1 in plasma [1]; DPP4 inhibitor 10 mg/kg orally combined with melibiose 6 g/kg orally,228 ± 32 pM·h
same,body weight as compared with the control group,[2]; Compound A′ alone 10 mg/100 g in-feed,no changes in body weight as compared with the control group
same,Body weight gain after 12 days,[2]; [6],0.6 ± 0.1 g
same,Body weight gain after 13 days,[2]; [6],2.0 ± 0.3 g
"CC1=CC(=O)NS(=O)(=O)O1 [Acesulfame K, acesulfame potassium]",Plasma active GLP-1 concentration (relative value),active GLP-1 in plasma [3]; sweetener 1 g/kg orally combined with Compound A′ 10 mg/kg orally,149
same,Plasma active GLP-1 concentration (relative value),active GLP-1 in plasma [3]; [7],377
same,Increase in AUC of Plasma active GLP-1,active GLP-1 in plasma [1]; [8],51 ± 1 pM·h
same,fat mass (g) as compared with the control group,[2],decreased significantly
same,lean mass (g) in comparison with the control group,[2],no change in lean mass
same,body weights as compared with the control group,[2],body weights significantly decreased as compared with the control group
same,body weight as compared with the control group,[2]; [9],no significant differences as compared with the control group
same,Body weight gain after 12 days,[2]; [10],-0.5 ± 0.3 g
same,Body weight gain after 12 days,[2]; [11],-1.0 ± 0.4 g
"CCC(=O)N1CCN(C2CCC(C)(NCC(=O)N3CCC[C@H]3C#N)CC2)CC1 (stereo partly drawn) [Compound B, (2S)-2-cyano-1-[t-4-(4-propionyl-1-piperazinyl)-1-methyl-r-1-cyclohexylamino]acetyl pyrrolidine]",Increase in AUC of Plasma active GLP-1,active GLP-1 in plasma [1]; [5],153 ± 14 pM·h
O=C[C@H](O)[C@@H](O)[C@@H](O)[C@H](O)CO [D-galactose],blood GLP-1 levels following administration,GLP-1,blood GLP-1 levels are increased
O=C[C@H](O)[C@@H](O)[C@H](O)[C@H](O)CO [D-glucose],blood GLP-1 levels following administration,GLP-1,blood GLP-1 levels are increased
OC[C@@H](O)[C@@H](O)[C@H](O)[C@H](O)CO [D-mannitol],Plasma active GLP-1 concentration (relative value),active GLP-1 in plasma [3]; [7],160
same,Plasma active GLP-1 concentration (relative value),active GLP-1 in plasma [3]; [12],742
same,Increase in AUC of Plasma active GLP-1,active GLP-1 in plasma [1]; [8],85 ± 1 pM·h
same,fat mass (g) as compared with the control group,[2],decreased significantly
same,lean mass (g) in comparison with the control group,[2],no change in lean mass
same,body weights as compared with the control group,[2],body weights significantly decreased as compared with the control group
same,body weight as compared with the control group,[2]; [9],no significant differences as compared with the control group
same,Body weight gain after 13 days,[2]; [10],1.1 ± 0.5 g
same,Body weight gain after 13 days,[2]; [11],0.2 ± 0.7 g
"OC[C@@H](O)[C@@H](O)CO [Erythritol, erythritol]",Plasma active GLP-1 concentration (relative value),active GLP-1 in plasma [3]; [7],147
same,Plasma active GLP-1 concentration (relative value),active GLP-1 in plasma [3]; [12],461
same,body weights as compared with the control group,[4]; [13],decreases in body weights were observed
same,body weights as compared with the control group,[4]; [14],decreases in body weights were not observed
same,Body weight gain After 8 days,[4],0.2 ± 0.1 g
same,Body weight gain After 15 days,[4],0.9 ± 0.3 g
"OC[C@H]1O[C@@](CO)(OC[C@@]2(O[C@H]3O[C@H](CO)[C@@H](O)[C@H](O)[C@H]3O)O[C@H](CO)[C@@H](O)[C@@H]2O)[C@@H](O)[C@@H]1O [Kestose, glucose-1,2-fructose-1,2-fructose]",Plasma active GLP-1 concentration (relative value),active GLP-1 in plasma [3]; [12],166
"O=C[C@H](O)[C@@H](O)[C@H](O)[C@H](O)CO[C@H]1O[C@H](CO)[C@H](O)[C@H](O)[C@H]1O [Melibiose, α-D-galactopyranosyl-(1→6)-D-glucose]",Plasma active GLP-1 concentration (relative value),active GLP-1 in plasma [3]; [12],454
same,Increase in AUC of Plasma active GLP-1,active GLP-1 in plasma [1]; sweetener 6 g/kg orally alone (purified water instead of DPP4 inhibitor),95 ± 2 pM·h
same,body weights as compared with the control group,[2],body weights significantly decreased as compared with the control group
same,body weight as compared with the control group,[2]; [9],no significant differences as compared with the control group
same,Body weight gain after 13 days,[2]; [10],2.2 ± 0.2 g
same,Body weight gain after 13 days,[2]; [11],0.9 ± 0.4 g
"OC[C@H]1O[C@H](OC[C@H]2O[C@H](O[C@]3(CO)O[C@H](CO)[C@@H](O)[C@@H]3O)[C@H](O)[C@@H](O)[C@@H]2O)[C@H](O)[C@@H](O)[C@H]1O [Raffinose, β-D-fructofuranosyl α-D-galactopyranosyl-(1→6)-α-D-glucopyranoside]",Plasma active GLP-1 concentration (relative value),active GLP-1 in plasma [3]; [12],77
"OC[C@@H](O)[C@@H](O)[C@H](O)[C@@H](O)CO [Sorbitol, sorbitol]",Plasma active GLP-1 concentration (relative value),active GLP-1 in plasma [3]; [7],286
same,Plasma active GLP-1 concentration (relative value),active GLP-1 in plasma [3]; [12],863
same,body weights as compared with the control group,[4]; [13],decreases in body weights were observed
same,body weights as compared with the control group,[4]; [14],decreases in body weights were not observed
same,Body weight gain After 8 days,[4],-0.7 ± 0.4 g
same,Body weight gain After 15 days,[4],0.8 ± 0.3 g
"OC[C@H]1O[C@H](O[C@]2(CCl)O[C@H](CCl)[C@@H](O)[C@@H]2O)[C@H](O)[C@@H](O)[C@H]1Cl [Sucralose, sucralose]",Plasma active GLP-1 concentration (relative value),active GLP-1 in plasma [3]; [12],166
OC[C@H]1O[C@@](CO)(O[C@H]2O[C@H](CO)[C@@H](O)[C@H](O)[C@H]2O)[C@@H](O)[C@@H]1O [sucrose],blood GLP-1 levels following administration,GLP-1,blood GLP-1 levels are increased

# Reference: US8927504B2, “Combined use of dipeptidyl peptidase 4 inhibitor and sweetener” (Mitsubishi Tanabe Pharma Corporation, priority 2007, dated 2015)
